Experimental data taken from patent US20240197635A1, “DISSOCIATING POLYMER MATRIX COMPOSITIONS OF FULVESTRANT AND METHODS OF THEIR MAKING AND USE” (VeraMorph LLC, priority 2021, published 2024).

Test: In vitro dissolution of fulvestrant-loaded DPODs in simulated gastric fluid
Details: aqueous dissolution media
Protocol: The exact time of release can vary from 5 minutes to 120 minutes, with the capability to dissolve in less than 60 minutes and in less than 30 minutes and in less than 20 minutes depending on the exact pH. These parameters can be controlled by modifying the extent of drug loading and the composition of the DPOD.

saturation concentration of fulvestrant: 2 µg/mL
SMILES: C[C@]12CC[C@@H]3c4ccc(O)cc4C[C@@H](CCCCCCCCC[S+]([O-])CCCC(F)(F)C(F)(F)F)[C@H]3[C@@H]1CC[C@@H]2O (stereo partly drawn) [fulvestrant, 7α-[9-[(4,4,5,5,5-Pentafluoropentyl)-sulfinyl]nonyl]estra-1,3,5(10)-triene-3,17β-diol]
